This is an account of results in patent publication US7425548B2, “Materials and methods for immune system stimulation” (Variety Chidren's Hospital, priority 2004, dated 2008).

Data set [1] concerns CEM/VLB tumor cell line. Nature of the data set: MTT cytotoxicity / cell proliferation assay. Type of data set: cell-based, human. Particulars: 24 hours, concentrations as high as 1000 μg/ml. As for the experimental part:
(§1) FIGS. 4A-4B show cytotoxic analysis of RR1 in normal lymphocytes (a) and tumor cell lines (b). Cells (10^6) were treated with RR1 for 24 hours and cytotoxicity assay performed using MTT cell proliferation kit (Roche Biochemicals). The percentage of surviving cells over control was plotted against RR1 concentrations.
(§2) Immunostimulating Properties. To measure the immune stimulatory property of RR1, the activation of the different subsets of lymphocytes, syntheses of cytokines such as interleukin (IL)-1β, IL-2, IL-4, IL-6, IL-10, IL-12 p70 and p40, IL-18, interferon (IFN)-α and γ, Tumor Necrosis factor (TNF)-α and β, monocyte chemo-attractant protein (MCP)-1, synthesis of nitric oxide (NO), and the extent of oxidative stress elicited in human lymphocytes was analyzed. Normal lymphocytes were isolated by the histopaque density gradient method from fresh blood drawn from healthy volunteers and utilized for various assays. Human leukemic (CEM) and multidrug resistant (CEM/VLB) cell lines were grown in RPMI medium supplemented with 10% fetal bovine serum and antibiotics in 5% CO2 incubator at 37° C.

Data set [2] has as its system normal lymphocytes. In words: MTT cytotoxicity / cell proliferation assay. Type of data set: cell-based, human. The settings on record: 24 hours, concentrations as high as 1000 μg/ml. As for the experimental part:
as §1, §2

Data set [3] deals with CEM tumor cell line. In words: MTT cytotoxicity / cell proliferation assay. Type of data set: cell-based, human. Particulars: 24 hours, concentrations as high as 1000 μg/ml. As to the method:
as §1, §2

A short description of data set [4]: Water solubility. The data set is classed as physicochemical. As to the method:
Isolation and characterization of RR1. […] The final RR1 compound, shown in FIG. 3, was isolated in about 0.1% yield of the total dry material used for extraction as a puffy solid that dissolved in water. […] Therefore, detailed polysaccharide analyses such as the glycosyl composition, linkage, molecular weight and conformation of the glucose units at the anomeric center were performed at the Complex Carbohydrate Research Center, University of Georgia, Athens. […] To perform glycosyl linkage analysis, the sample was permethylated three times by the method of Cikanu and Kereck (Ciucanu, I. and F. Kereck Carbohydr. Res., 1984, 131:209-217), hydrolyzed with 2 M trifluroacetic acid, reduced with NaBD4 and acetylated with acetic anhydride/pyridine and the resulted partially methylated alditol acetates (PMAA) were analyzed by GC/MS. […] The conformations at the anomeric center of the glucopyranosyl units were obtained based on the 500 MHz protonNMR spectra recorded in D2O and by comparison with the anomeric proton signals of standard samples. The molecular mass was obtained from the size exclusion chromatography using SUPELCO silica column (1.0×30 cm), eluting with 50 mM ammonium formate buffer at a rate of […]. and detected by the refractive index. […]

In data set [5] the test system is RAW264.7 macrophages. In words: Nonopsonized binding of FITC-zymosan A bioparticles. The settings on record: 1000 μg/ml RR1, 4° C. Type of data set: cell-based, mouse. As for the experimental part: RR1 inhibits the binding and internalization of nonopsonic binding of zymosan A bioparticles in a dose-dependent manner. The cells were incubated with RR1 for 1 hour on ice (4° C.) in DMEM containing 0.5% FBS followed by zymosan A biparticles for 1 hour on ice. The cells were warmed for 7 minutes at 37° C. for internalization of zymosan A bioparticles and intracellular FITC fluorescence analyzed in a Coulter Elite flow cytometer.
Nonopsonized binding of RR1. To determine the inhibitory effect of RR1 on non-opsonized binding of zymosan A bioparticles, mouse monocyte/macrophage cells (0.5×10^6) were incubated with 0, 100, 500 and 1000 μg/ml of RR1 at 4° C. to prevent the local release of opsonins including complement (Ezekowitz, R. A. et al. J. Clin. Invest., 1985, 76:2368-2376; Brown, G. D. et al. J. Expt. Med., 2002, 196:407-412). After 1 hour incubation on ice, the cells were washed three times with pre-chilled culture medium, added FITC-conjugated zymosan A particles at a ratio of 25 particles/cell and kept on ice for another hour. The cells were washed with PBS twice and incubated in DMEM at 37° C. for 30 minutes in a CO2 incubator. The unbound zymosan particles were removed by extensive washing with medium and the intracellular fluorescence of the zymosan-FITC analyzed in a Coulter Elite flow cytometer.

Data set [6] relates to HEK293 cells transfected with TLR4/CD14/MD2. Nature of the data set: TLR signaling, IL-8 ELISA. The data set is classed as cell-based, human. The settings on record: HEK/TLR4/CD14/MD2, 24 hours. As for the experimental part: (§3) TLR signaling. To determine the involvement of TLR signaling, parental HEK293 as well as HEK293 cells transfected with human TLR2, TLR6, TLR2/6 or TLR4/CD14/MD2 genes (cloned into pDUO plasmid), were used. These cells (0.5×10^6/ml) were incubated with 0-100 μg/ml of RR1 for 24 hours. Since these cells produce very low level of TNF-α and detectable levels of IL-8 upon activation, IL-8 secreted into the medium was analyzed using ELISA procedure. Incidentally, the IL-8 synthesis is also under the control of the transcription factor NF-κB.
A general note: An ELISA detects its analyte on a solid surface through an enzyme-linked reagent.

Data set [7] relates to HEK293 cells transfected with TLR2. Nature of the data set: TLR signaling, IL-8 ELISA. The data set is classed as cell-based, human. Particulars: HEK/TLR2, 24 hours. As to the method: as §3
The test system of data set [8] is parental HEK293 cells. In words: TLR signaling, IL-8 ELISA. The settings on record: parental HEK, RR1 0-100 μg/ml, 24 hours. The data set is classed as cell-based, human. As for the experimental part: as §3
Data set [9] relates to monocytes isolated from peripheral blood mononuclear cells. In words: NO synthesis in monocytes. Type of data set: cell-based. The text has this: NO levels are also reported to play an important role in the modulation of Th cell differentiation and polarization. Yamasaki et al. (Yamasaki, A. et al. Yonago Acta Medica, 1998, 44:7-15) and Taylor-Robinson et al. (Taylor-Robinson, A. W. et al. Eur. J. Immunol., 1994, 24:980-984) reported an inhibitory role of NO on Th1 cytokines while Bauer et al. (Bauer, H. et al., Immunol, 1997, 90:205-211) reported the same for Th1 as well as Th2 cytokines by NO from activated T cells. […] The enzyme iNOS produced a high output of NO from macrophages upon stimulation. […] The absence of iNOS induction by RR1 supports the conclusion that there is an insignificant increase in the production of NO. […] IFN-α, IFN-γ and TNF-α are known up-regulators of NO synthesis (Shin, J. Y. et al. Immunopharmcol. Immunotoxicol., 2002, 24:469-482; Hirazumi, A. and Furusawa, E. Phytother Res., 1999, 13:380-387).

In the case of (1,4)-α-D-glucan [RR1], the “direct cytotoxic or cell proliferating effect (MTT)” value in [1], in data set [2] and in [3] was “no direct cytotoxic or cell proliferating effect” each time. Besides, the solubility in water entry in data set [4] is recorded as “soluble in water”. In data set [5], the “inhibition of nonopsonic binding of FITC-zymosan A bioparticles (fluorescence intensity)” value is reported as “about 65%”. In addition, the IL-8 production entry in data set [6], in data set [7] and in data set [8] was “did not induce IL-8 production” each time. Moreover, in data set [9], the “NO levels with RR1 treatment” value is reported as “did not induce any higher levels of NO”.
